Test results from article PMC3009643 (BMC Neuroscience, 2010).
Where two headings read alike, the source gives them in different places.

Tests used:
[1] = test system: neuro-2a mouse neuroblastoma cells; conditions: cited from earlier work; for fold less potent than ATX in producing toxicity: neuro-2a mouse neuroblastoma cells
rNav1.2 α-subunit = biological target: T1, rNav1.2 α-subunit (Rattus norvegicus, UniProt P04775); test: cell-based; type: cell-based; conditions: for EC50: rNav1.2-CHL 1610 cells, SBFI, 37°C, read-out: EC50 (nM) (95% CI), sodium influx
T1 construct: host or cells: CHL 1610 (Chinese hamster lung)

rNav1.4 α-subunit = biological target: T2, rNav1.4 α-subunit (Rattus norvegicus, UniProt P15390); test: SBFI sodium influx assay in rNav1.4-HEK 293 cells; type: cell-based; conditions: for maximal response of sodium influx, area under the curve (AUC, fluorescence × time) (95%CI) / EC50: rNav1.4-HEK 293 cells; for EC50: SBFI, 37°C, read-out: EC50 (nM) (95% CI), sodium influx
T2 construct: host or cells: HEK 293

rNav1.5 α-subunit = biological target: T3, rNav1.5 α-subunit (Rattus norvegicus, UniProt P15389); test: SBFI sodium influx assay in rNav1.5-CHL 1610 cells; type: cell-based; conditions: for EC50: rNav1.5-CHL 1610 cells, SBFI, 37°C, read-out: EC50 (nM) (95% CI), sodium influx
T3 construct: host or cells: CHL 1610 (Chinese hamster lung)

[2] = biological target: T4, calcium-permeable DEAA mutant of rNav1.4 α-subunit (Rattus norvegicus, UniProt P15390, K1237A); test: fluo-3 calcium influx assay in DEAA-HEK 293 cells; type: cell-based; conditions: for EC50: fluo-3, read-out: EC50, Ca2+ influx (95% CI)
T4 construct: host or cells: HEK 293

HEK 293 cells = test: SBFI sodium influx assay in wild type HEK 293 parent cells; type: cell-based, human; conditions: wild type HEK 293 parent cell line
CHL 1610 cells = test: SBFI sodium influx assay in wild type CHL 1610 parent cells; type: cell-based, Chinese hamster; conditions: wild type CHL 1610 parent cell line
[3] = test system: rNav1.2-CHL 1610, rNav1.4-HEK 293 and rNav1.5-CHL 160 cells; type: cell-based; conditions: 1 μM ATX for 24 h; preliminary experiments
Description: Supplementary file 1471-2202-11-154-S1.TIFF: Additional file 1 Lack of toxic effect of ATX in rNav1.2-CHL 1610, rNav1.4-HEK 293 and rNav1.5-CHL 160 cells. The cells were exposed to 1 μM ATX for 24 h and the medium was collected and subjected to LDH activity measurement as described by Koh and Choi (1987; Koh, JY, and Choi, DW. Quantitative determination of glutamate mediated cortical neuronal injury in cell culture by lactate dehydrogenase efflux assay. J Neurosci Methods 20:83-90). […] Click here for file

[4] = test system: sodium channel neurotoxin site 2; conditions: cited from earlier work
neocortical neurons = conditions: cited from earlier work

T2 sequence (P15390 whole entry): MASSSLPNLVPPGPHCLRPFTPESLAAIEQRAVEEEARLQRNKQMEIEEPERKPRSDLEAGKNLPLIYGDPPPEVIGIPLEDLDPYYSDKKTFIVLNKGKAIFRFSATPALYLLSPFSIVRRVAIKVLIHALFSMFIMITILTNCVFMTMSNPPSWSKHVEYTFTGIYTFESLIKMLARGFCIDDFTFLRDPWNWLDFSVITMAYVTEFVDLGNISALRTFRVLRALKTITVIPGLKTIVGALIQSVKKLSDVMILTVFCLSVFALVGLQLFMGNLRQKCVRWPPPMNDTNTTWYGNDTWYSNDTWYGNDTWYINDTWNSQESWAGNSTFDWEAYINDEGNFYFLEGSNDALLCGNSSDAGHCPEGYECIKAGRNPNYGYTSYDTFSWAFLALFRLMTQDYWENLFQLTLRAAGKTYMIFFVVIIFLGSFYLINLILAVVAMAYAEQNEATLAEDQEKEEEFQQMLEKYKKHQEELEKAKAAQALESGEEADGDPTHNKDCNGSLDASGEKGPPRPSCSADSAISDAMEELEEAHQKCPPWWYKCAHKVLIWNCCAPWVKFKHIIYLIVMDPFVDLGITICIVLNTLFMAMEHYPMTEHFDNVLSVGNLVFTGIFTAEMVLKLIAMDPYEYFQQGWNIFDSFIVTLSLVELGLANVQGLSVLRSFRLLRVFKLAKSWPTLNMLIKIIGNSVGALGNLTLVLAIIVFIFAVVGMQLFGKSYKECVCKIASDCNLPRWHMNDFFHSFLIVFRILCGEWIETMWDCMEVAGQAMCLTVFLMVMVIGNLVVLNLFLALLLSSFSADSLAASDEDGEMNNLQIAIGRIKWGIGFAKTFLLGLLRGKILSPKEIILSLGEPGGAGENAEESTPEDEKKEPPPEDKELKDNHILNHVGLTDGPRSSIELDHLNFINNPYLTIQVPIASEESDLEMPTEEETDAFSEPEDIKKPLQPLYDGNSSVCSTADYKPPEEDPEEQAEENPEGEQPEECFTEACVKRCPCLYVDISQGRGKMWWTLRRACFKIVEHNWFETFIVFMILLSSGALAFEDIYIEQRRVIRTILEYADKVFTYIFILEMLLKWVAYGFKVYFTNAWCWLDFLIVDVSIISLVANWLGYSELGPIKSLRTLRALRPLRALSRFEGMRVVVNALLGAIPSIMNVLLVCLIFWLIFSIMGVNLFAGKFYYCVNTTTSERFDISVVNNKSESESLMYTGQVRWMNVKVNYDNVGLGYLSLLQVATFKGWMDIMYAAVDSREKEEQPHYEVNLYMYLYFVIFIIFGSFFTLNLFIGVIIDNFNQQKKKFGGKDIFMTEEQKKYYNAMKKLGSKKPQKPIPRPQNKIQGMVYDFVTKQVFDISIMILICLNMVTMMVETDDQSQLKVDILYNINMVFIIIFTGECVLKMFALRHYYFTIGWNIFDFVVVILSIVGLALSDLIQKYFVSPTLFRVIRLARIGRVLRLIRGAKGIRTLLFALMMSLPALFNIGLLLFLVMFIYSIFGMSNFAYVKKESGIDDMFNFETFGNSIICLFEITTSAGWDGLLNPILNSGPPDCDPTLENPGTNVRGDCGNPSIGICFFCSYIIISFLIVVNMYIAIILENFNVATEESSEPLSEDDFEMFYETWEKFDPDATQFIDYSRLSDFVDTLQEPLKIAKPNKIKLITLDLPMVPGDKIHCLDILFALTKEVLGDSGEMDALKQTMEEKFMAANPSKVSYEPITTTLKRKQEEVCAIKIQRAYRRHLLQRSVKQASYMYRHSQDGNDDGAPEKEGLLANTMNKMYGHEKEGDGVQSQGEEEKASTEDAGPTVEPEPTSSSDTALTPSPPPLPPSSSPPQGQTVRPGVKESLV
T3 sequence (P15389 whole entry): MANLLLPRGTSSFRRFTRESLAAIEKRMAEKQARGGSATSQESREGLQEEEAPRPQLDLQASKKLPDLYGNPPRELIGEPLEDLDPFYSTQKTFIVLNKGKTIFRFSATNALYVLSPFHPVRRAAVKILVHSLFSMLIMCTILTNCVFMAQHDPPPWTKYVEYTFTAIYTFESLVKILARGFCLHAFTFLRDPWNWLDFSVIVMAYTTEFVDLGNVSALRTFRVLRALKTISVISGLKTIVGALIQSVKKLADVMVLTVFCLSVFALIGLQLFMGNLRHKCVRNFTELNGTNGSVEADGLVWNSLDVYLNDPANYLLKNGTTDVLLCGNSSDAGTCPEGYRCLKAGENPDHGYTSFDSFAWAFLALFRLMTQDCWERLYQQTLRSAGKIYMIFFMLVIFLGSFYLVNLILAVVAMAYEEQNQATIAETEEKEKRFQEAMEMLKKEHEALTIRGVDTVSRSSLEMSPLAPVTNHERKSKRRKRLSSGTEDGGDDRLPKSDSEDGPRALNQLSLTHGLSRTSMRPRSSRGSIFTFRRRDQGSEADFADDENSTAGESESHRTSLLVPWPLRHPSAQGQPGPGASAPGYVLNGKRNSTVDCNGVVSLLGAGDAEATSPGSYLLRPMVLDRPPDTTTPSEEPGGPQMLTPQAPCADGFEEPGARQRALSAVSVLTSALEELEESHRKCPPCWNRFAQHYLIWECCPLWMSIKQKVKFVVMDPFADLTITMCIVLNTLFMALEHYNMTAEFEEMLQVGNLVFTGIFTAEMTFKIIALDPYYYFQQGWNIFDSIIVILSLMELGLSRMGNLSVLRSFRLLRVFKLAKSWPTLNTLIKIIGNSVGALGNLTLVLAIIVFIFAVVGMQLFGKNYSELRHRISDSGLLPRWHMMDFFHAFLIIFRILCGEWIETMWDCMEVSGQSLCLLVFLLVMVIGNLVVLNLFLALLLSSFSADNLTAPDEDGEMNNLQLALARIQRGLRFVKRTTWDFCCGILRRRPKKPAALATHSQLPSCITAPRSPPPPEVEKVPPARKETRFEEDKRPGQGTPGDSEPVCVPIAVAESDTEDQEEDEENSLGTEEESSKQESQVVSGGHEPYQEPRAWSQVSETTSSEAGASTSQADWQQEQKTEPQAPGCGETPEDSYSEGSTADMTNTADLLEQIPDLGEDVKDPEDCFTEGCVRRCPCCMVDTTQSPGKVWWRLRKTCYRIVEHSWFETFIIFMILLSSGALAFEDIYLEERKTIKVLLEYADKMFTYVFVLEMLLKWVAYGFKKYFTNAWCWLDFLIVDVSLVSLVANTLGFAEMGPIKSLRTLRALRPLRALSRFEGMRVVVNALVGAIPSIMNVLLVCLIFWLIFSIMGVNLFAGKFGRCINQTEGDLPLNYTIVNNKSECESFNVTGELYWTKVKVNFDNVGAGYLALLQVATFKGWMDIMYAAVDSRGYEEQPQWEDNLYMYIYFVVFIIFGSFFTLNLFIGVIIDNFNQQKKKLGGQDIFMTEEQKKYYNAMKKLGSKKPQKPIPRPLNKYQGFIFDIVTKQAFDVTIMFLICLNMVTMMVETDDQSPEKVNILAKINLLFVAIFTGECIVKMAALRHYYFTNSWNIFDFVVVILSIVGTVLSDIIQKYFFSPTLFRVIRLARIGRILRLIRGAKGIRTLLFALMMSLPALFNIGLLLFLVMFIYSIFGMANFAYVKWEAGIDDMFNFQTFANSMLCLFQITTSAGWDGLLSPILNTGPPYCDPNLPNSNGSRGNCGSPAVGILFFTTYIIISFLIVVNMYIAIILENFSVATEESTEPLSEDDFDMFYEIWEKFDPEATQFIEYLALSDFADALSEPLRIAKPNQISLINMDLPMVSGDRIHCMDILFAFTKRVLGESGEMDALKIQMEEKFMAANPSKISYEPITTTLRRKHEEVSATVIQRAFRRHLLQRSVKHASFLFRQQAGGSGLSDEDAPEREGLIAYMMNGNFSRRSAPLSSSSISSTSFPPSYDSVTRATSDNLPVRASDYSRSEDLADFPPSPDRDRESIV
T4 sequence (P15390 whole entry K1237A): as the sequence (P15390 whole entry) above, with K1237A counted along it

8-demethyl-antillatoxin [reference compound]
fold less potent than ATX in producing toxicity [1]: 244 fold

C=C1CC(=O)N[C@@H](C)C(=O)N(C)[C@@H](C(C)C)C(=O)NCC(=O)O[C@@H](/C(C)=C/C(C)=C/C(C)(C)C)[C@@H]1C [ATX, antillatoxin]
EC50 (rNav1.2 α-subunit): 376 nM | Efficacy (relative), sodium influx (rNav1.2 α-subunit; rNav1.2, relative to ATX = 1): 1 | maximal response of sodium influx, area under the curve (AUC, fluorescence × time) (95%CI) (rNav1.4 α-subunit; ATX alone): 439.4 | maximal response of sodium influx, area under the curve (AUC, fluorescence × time) (95%CI) (rNav1.4 α-subunit; ATX in the presence of PbTx-2 (3 μM)): 537.9 | EC50 (rNav1.4 α-subunit): 165 nM | Efficacy (relative), sodium influx (rNav1.4 α-subunit; rNav1.4, relative to ATX = 1): 1 | fold more potent than in neuronal rNav1.2, sodium influx (rNav1.4 α-subunit; skeletal muscle rNav1.4 versus rNav1.2): 2 fold | fold more potent than in neuronal rNav1.2, sodium influx (rNav1.5 α-subunit; cardiac rNav1.5 versus rNav1.2): 2 fold | EC50 (rNav1.5 α-subunit): 205 nM | Efficacy (relative), sodium influx (rNav1.5 α-subunit; rNav1.5, relative to ATX = 1): 1 | EC50 ([2]; DEAA-HEK 293 cells): 165 nM | sodium influx (in words) (HEK 293 cells): minimal sodium influx | sodium influx (in words) (CHL 1610 cells): minimal sodium influx | toxicity (LDH activity, in words) [3]: not toxic

C=C1CC(=O)N[C@@H](C)C(=O)N(C)[C@@H](C(C)C)C(=O)NCC(=O)O[C@@H](/C(C)=C/CCC(C)(C)C)[C@@H]1C [DH-ATX, 8-demethyl-8,9-dihydro-antillatoxin]
EC50 (rNav1.2 α-subunit): 1130 nM | Efficacy (relative), sodium influx (rNav1.2 α-subunit; rNav1.2, relative to ATX = 1): 0.32 | fold less potent than ATX, stimulation of sodium influx (rNav1.2 α-subunit; stated for all three cell lines (rNav1.2-CHL 1610, rNav1.4-HEK 293, rNav1.5-CHL 1610)): 2.5 - 4 fold | EC50 (rNav1.4 α-subunit): 644 nM | Efficacy (relative), sodium influx (rNav1.4 α-subunit; rNav1.4, relative to ATX = 1): 0.33 | EC50 (rNav1.5 α-subunit): 595 nM | Efficacy (relative), sodium influx (rNav1.5 α-subunit; rNav1.5, relative to ATX = 1): 0.25 | EC50 ([2]; DEAA-HEK 293 cells): 680 nM | relative efficacy, Ca2+ influx ([2]; DEAA-HEK 293 cells, relative to ATX): 0.24 | fold less potent than ATX in producing toxicity [1]: 27 fold | EC50 ([1]; neuro-2a neuroblastoma cells, read-out: EC50, toxicity): 1200 nM

CCC[C@@H](C)[C@H](O)[C@H](C)[C@H]1OC(=O)[C@H]([C@@H](C)O)NC(=O)[C@H](C(C)C)OC(=O)[C@H](C)[C@H](O)[C@H]([C@@H](C)CC)NC(=O)[C@@]2(C)CSC(=N2)[C@@]2(C)CSC(=N2)c2csc(n2)C[C@H](OC)[C@@H]1C [Hoiamide A, hoiamide A]
fold more potent than veratridine, inhibition of [3H]BTX binding [4]: 360 fold | IC50 ([4]; read-out: IC50, inhibition of [3H]BTX binding): 92.8 nM

NC1=N[C@H](O)[C@H]2[C@H]3O[C@]4(O)O[C@@H]([C@@H](O)[C@@]2(N1)[C@@H]4O)[C@]3(O)CO [TTX, tetrodotoxin, reference compound]
IC50 (rNav1.4 α-subunit; read-out: IC50, inhibition of ATX-induced sodium influx (95% CI)): 25.2 nM

COc1ccc(C(=O)O[C@H]2CC[C@@]3(C)[C@@H]4CC[C@H]5[C@]6(O)C[C@H](O)[C@@]7(O)[C@@H](CN8C[C@@H](C)CC[C@H]8[C@@]7(C)O)[C@]6(O)C[C@@]53O[C@]24O)cc1OC [Veratridine, veratridine, reference compound]
Efficacy (relative), sodium influx (rNav1.2 α-subunit; rNav1.2, relative to ATX = 1): 0 | Efficacy (relative), sodium influx (rNav1.4 α-subunit; rNav1.4, relative to ATX = 1): 0 | Efficacy (relative), sodium influx (rNav1.5 α-subunit; rNav1.5, relative to ATX = 1): 0 | stimulation of Ca2+ influx (in words) ([2]; DEAA-HEK 293 cells): without effect | efficacy, sodium influx (neocortical neurons; neocortical neurons): 0.67

brevetoxin-2 [PbTx-2, reference compound]
Efficacy (relative), sodium influx (rNav1.2 α-subunit): 0 | Efficacy (relative), sodium influx (rNav1.4 α-subunit): 0 | Efficacy (relative), sodium influx (rNav1.5 α-subunit): 0 | stimulation of Ca2+ influx (in words) [2]: without effect | efficacy, sodium influx (neocortical neurons): 0.81
